Columns and labels:
adenosine triphosphate = compound: Nc1ncnc2c1ncn2[C@@H]1O[C@H](COP(=O)(O)OP(=O)(O)OP(=O)(O)O)[C@@H](O)[C@H]1O [adenosine triphosphate]; test: pEC50 of ATP-induced change in protein thermal stability (2D-TPP)
Procedure, shortened: (§1)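 Soluble protein was quantified by TMT LC-MS/MS after ultracentrifugation of Jurkat crude lysate that had been dosed at five concentrations including vehicle (10 min, room temperature), heated at 12 temperatures of 42–63.9 °C for 3 min, and incubated with NP40 and benzonase at 4 °C for 60 min. Fold changes against vehicle at each temperature were median-normalised, and pEC50 was derived from per-replicate dose-response fits over adjacent temperature pairs. Hits were called with permutation-based false discovery rate control in three independent experiments.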

guanosine triphosphate = compound: Nc1nc2c(ncn2[C@@H]2O[C@H](COP(=O)(O)OP(=O)(O)OP(=O)(O)O)[C@@H](O)[C@H]2O)c(=O)[nH]1 [guanosine triphosphate]; test: pEC50 of GTP-induced change in protein thermal stability (2D-TPP)
Procedure, shortened: as §1
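Wherever pEC50 of ATP-induced change in protein thermal stability (2D-TPP) is given: lysate dosed with Na-ATP at 0 0.005 0.05 0.5 and 2 mM.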

UniProt P49590, sequence (P49590 whole entry): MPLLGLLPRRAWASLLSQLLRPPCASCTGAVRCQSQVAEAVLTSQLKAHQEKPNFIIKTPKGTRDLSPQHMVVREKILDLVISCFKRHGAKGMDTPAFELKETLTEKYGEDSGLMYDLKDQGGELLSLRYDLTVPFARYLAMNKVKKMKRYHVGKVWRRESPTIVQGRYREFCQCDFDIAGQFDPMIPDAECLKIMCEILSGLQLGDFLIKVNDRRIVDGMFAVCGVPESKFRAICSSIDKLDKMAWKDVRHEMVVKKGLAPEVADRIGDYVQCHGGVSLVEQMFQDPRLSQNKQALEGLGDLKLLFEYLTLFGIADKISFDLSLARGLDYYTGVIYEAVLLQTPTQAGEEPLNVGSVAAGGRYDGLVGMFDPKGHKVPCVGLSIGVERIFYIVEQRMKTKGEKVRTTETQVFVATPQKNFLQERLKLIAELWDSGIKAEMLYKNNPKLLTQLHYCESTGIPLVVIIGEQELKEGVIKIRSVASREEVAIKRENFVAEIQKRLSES
UniProt O95140, sequence (O95140 whole entry): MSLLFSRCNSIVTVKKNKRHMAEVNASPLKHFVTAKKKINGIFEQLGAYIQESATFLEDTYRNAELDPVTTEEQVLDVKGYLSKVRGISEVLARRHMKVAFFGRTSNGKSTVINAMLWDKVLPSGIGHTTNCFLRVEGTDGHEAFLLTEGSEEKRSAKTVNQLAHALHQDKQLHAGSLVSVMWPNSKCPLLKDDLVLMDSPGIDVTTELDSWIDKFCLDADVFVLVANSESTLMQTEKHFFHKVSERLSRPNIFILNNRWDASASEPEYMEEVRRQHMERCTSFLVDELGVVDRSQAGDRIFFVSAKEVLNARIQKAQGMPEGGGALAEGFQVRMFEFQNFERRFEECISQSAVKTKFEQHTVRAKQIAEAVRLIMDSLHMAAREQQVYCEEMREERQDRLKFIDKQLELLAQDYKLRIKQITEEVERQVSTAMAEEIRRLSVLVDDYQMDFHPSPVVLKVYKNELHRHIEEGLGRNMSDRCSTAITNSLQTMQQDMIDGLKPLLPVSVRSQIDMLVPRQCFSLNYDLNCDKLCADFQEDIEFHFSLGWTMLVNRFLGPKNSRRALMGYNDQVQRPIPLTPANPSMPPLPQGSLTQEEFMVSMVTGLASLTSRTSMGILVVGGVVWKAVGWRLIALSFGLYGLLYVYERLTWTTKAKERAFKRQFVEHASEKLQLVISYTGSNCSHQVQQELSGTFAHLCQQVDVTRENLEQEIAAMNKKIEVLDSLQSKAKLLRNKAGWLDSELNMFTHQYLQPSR
UniProt P61244, sequence (P61244 whole entry): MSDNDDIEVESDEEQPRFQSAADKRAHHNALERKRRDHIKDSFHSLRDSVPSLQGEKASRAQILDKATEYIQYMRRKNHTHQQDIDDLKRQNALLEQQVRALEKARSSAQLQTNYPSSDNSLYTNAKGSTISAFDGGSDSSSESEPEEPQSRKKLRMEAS
UniProt Q9UIJ7, sequence (Q9UIJ7 whole entry): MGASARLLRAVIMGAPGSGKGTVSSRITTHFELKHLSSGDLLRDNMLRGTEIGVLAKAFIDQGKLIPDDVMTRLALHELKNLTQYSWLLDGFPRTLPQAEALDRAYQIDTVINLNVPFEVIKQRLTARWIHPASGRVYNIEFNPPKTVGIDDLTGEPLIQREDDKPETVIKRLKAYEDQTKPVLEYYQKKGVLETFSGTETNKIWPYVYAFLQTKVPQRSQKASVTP
UniProt Q92878, sequence (Q92878 whole entry): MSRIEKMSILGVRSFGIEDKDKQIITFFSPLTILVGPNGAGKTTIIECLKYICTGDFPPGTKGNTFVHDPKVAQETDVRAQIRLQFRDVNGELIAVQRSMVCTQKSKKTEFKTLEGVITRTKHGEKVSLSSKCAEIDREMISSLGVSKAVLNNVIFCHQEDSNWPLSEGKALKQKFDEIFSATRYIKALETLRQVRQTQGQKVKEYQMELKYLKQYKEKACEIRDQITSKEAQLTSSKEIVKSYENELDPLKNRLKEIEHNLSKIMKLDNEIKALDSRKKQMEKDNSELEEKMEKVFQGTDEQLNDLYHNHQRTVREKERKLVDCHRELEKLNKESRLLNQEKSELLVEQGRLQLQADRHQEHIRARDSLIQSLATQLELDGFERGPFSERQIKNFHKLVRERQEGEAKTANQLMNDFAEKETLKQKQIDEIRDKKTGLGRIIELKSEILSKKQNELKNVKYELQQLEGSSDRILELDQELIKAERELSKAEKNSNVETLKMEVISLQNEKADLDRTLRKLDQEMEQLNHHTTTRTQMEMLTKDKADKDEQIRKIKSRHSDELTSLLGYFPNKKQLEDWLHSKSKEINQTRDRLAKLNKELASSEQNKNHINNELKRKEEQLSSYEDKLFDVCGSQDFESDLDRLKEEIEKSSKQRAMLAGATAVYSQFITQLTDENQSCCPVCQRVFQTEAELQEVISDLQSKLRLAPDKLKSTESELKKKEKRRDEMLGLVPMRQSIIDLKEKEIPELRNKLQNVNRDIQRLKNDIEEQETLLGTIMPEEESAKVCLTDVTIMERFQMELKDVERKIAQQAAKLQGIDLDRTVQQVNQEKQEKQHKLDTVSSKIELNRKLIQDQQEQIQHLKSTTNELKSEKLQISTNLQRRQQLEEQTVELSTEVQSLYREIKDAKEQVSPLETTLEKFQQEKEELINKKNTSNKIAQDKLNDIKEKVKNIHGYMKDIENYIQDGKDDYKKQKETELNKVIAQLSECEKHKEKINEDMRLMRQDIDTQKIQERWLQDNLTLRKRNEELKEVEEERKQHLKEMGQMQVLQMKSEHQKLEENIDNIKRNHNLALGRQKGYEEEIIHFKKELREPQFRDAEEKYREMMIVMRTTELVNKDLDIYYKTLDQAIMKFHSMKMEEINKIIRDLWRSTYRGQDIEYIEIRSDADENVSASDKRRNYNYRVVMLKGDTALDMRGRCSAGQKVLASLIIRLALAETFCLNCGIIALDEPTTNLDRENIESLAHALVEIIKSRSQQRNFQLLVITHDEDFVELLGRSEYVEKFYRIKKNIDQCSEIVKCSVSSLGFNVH
UniProt O95299, sequence (O95299 whole entry): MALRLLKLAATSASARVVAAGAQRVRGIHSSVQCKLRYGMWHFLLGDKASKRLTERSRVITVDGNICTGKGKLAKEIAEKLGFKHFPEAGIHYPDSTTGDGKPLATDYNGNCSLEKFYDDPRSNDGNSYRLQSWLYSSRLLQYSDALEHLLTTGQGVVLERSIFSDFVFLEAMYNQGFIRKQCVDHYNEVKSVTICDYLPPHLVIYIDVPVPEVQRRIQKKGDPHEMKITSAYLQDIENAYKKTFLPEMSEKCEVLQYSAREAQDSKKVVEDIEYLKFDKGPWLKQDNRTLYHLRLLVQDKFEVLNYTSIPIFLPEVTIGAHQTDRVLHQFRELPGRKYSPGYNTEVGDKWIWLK
UniProt O60547, sequence (O60547 whole entry): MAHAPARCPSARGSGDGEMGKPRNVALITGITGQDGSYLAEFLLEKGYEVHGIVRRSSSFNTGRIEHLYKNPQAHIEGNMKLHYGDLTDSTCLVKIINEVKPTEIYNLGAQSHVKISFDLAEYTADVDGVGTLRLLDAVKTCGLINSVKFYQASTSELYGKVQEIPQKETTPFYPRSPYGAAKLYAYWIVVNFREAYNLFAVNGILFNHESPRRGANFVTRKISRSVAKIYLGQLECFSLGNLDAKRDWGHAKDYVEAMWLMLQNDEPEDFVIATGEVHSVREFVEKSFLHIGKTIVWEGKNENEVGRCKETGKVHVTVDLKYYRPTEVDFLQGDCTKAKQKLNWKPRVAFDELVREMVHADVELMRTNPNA
UniProt Q969Z0, sequence (Q969Z0 whole entry): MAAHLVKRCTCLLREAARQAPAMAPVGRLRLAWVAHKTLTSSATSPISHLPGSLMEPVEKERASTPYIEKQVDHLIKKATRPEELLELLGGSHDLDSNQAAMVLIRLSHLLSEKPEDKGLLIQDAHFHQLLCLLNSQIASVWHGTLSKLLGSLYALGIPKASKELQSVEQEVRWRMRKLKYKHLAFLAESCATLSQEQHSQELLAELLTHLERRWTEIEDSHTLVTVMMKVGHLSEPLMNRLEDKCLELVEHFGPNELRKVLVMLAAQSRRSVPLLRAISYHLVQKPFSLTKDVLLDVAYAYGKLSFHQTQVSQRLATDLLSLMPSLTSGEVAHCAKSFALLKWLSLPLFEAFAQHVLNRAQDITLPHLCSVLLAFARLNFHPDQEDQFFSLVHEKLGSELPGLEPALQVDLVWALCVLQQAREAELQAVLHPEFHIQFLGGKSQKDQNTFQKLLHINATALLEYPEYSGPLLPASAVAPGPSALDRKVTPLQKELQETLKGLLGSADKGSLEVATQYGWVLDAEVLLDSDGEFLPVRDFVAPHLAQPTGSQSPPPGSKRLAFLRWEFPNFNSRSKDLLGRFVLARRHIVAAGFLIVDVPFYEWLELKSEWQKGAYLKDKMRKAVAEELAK
UniProt P10644, sequence (P10644 whole entry): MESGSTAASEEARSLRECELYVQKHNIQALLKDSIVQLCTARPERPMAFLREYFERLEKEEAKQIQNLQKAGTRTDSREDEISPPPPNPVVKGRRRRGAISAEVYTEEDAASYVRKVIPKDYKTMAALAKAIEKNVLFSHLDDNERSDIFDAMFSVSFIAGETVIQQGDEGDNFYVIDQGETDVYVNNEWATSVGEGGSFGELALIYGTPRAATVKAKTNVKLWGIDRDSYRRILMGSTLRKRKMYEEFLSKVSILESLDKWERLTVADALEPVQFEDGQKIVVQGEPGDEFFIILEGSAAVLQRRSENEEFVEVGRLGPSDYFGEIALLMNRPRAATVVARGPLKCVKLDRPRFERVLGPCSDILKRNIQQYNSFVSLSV
UniProt P62820, sequence (P62820 whole entry): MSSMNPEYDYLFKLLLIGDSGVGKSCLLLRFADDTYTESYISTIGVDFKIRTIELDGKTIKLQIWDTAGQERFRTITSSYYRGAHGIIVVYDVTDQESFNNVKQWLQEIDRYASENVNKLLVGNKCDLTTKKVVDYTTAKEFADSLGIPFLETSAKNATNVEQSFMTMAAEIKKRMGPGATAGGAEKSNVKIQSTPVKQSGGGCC

| Target | pEC50 (adenosine triphosphate) | pEC50 (guanosine triphosphate) |
| --- | --- | --- |
| UniProt P61225 (effect direction: stabilized) | 3.48 | 4.05 |
| UniProt Q9BW83 (effect direction: stabilized) | 3.12 | 3.96 |
| UniProt P61224 (effect direction: stabilized) | 3.9 | 4.25 |
| KIF2A (effect direction: stabilized) (UniProt O00139) | 4.21 | 4.29 |
| TBRG4 (effect direction: stabilized) (UniProt Q969Z0) | 3.26 | 3.48 |
| UniProt P61160 (effect direction: stabilized) | 4.25 | 3.99 |
| VARS (effect direction: stabilized) (UniProt P26640) | 3.57 | 3.79 |
| LONP1 (effect direction: stabilized) (UniProt P36776) | 4.03 | 3.91 |
| NDUFA10 (effect direction: stabilized) (UniProt O95299) | 3.91 | 3.81 |
| RAB4B (effect direction: stabilized) (UniProt P61018) | 3.79 | 5 |
| SUCLA2 (effect direction: stabilized) (UniProt Q9P2R7) | 3.2 | 3.78 |
| EFTUD2 (effect direction: stabilized) (UniProt Q15029) | 2.76 | 3.61 |
| UniProt Q712K3 (effect direction: stabilized) | 4.18 | 3.86 |
| CCT4 (effect direction: stabilized) (UniProt P50991) | 3.07 | 3.65 |
| ACSS1 (effect direction: stabilized) (UniProt Q9NUB1) | 3.42 | < 3.3 |
| MAX (effect direction: destabilized) (UniProt P61244) | 4.13 | 4.65 |
| RAB4A (effect direction: stabilized) (UniProt P20338) | 3.45 | 4.52 |
| DDX46 (effect direction: stabilized) (UniProt Q7L014) | 3.56 | 3.86 |
| SUCLG2 (effect direction: stabilized) (UniProt Q96I99) | 3.43 | 3.5 |
| UniProt P17612 (effect direction: stabilized) | 3.82 | 3.72 |
| UniProt P61026 (effect direction: stabilized) | 3.83 | 4.35 |
| EEF2 (effect direction: stabilized) (UniProt P13639) | 3.58 | 3.94 |
| GMDS (effect direction: stabilized) (UniProt O60547) | 2.72 | 4.02 |
| DRG2 (effect direction: stabilized) (UniProt P55039) | 3.7 | 4.32 |
| MFN2 (effect direction: stabilized) (UniProt O95140) | 3.77 | 4.04 |

Continued, values first:

| pEC50 (adenosine triphosphate) | pEC50 (guanosine triphosphate) | Target |
| --- | --- | --- |
| 3.37 | 3.49 | RAD50 (effect direction: stabilized) (UniProt Q92878) |
| 4.13 | 3.55 | HARS2 (effect direction: stabilized) (UniProt P49590) |
| 3.22 | 3.46 | AK3 (effect direction: stabilized) (UniProt Q9UIJ7) |
| < 2.7 | < 3.3 | TNPO2 (effect direction: stabilized) (UniProt O14787) |
| 3.35 | 4.05 | UniProt P07437 (effect direction: stabilized) |
| 3.93 | 4.27 | RAB8B (effect direction: stabilized) (UniProt Q92930) |
| 3.53 | 3.9 | UniProt P48047 (effect direction: stabilized) |
| 3.85 | 3.72 | PRKAR1A (effect direction: stabilized) (UniProt P10644) |
| 3.42 | 4.14 | MCM7 (effect direction: stabilized) (UniProt P33993) |
| 3.4 | 3.54 | PFKL (effect direction: stabilized) (UniProt P17858) |
| 4 | 3.9 | UniProt P52564 (effect direction: stabilized) |
| 3.79 | 3.78 | UniProt P45985 (effect direction: stabilized) |
| 4.17 | 4.06 | DTYMK (effect direction: stabilized) (UniProt P23919) |
| 4.38 | 3.75 | UniProt P62333 (effect direction: stabilized) |
| 3.74 | 4.31 | UniProt P62820 (effect direction: stabilized) |
